Assay results published in patent US9000044B2, “Substituted naphthylacetic acids” (Hoffmann-La Roche Inc., priority 2012, dated 2015).

Legend:
human CRTH2 [1] = molecular target: T1, human CRTH2 (Homo sapiens (Human), UniProt Q9Y5Y4); experiment: Human CRTH2 Receptor Binding Assay (whole cell, [3H]ramatroban); conditions: CHO-K1 cells expressing human CRTH2 and G-alpha16; 20 nM [3H]ramatroban; 1 hour, room temperature
Source text: Human CRTH2 Receptor Binding Assay
A whole cell receptor binding assay using [^3H]ramatroban as the competing radioactive ligand was employed to evaluate the compound binding activity to human CRTH2. The radioactive ligand [^3H]ramatroban was synthesized according to Sugimoto et. al. (Eur. J. Pharmacol. 524, 30-37, 2005) to a specific activity of 42 Ci/mmol.
A cell line stably expressing human CRTH2 was established by transfecting CHO-K1 cells with two mammalian expression vectors that harbored human CRTH2 and G-alpha16 cDNAs, respectively, using FuGene® 6 transfection reagent (from Roche). Stable clones expressing CRTH2 were selected by staining each clone with BM16 (BD Pharmingen™ from BD Biosciences, a division of Becton, Dickinson and Company), which is a rat monoclonal antibody to human CRTH2. The cells were maintained as monolayer cultures in Ham's F-12 medium containing 10% fetal bovine serum, 100 units/mL penicillin, 100 μg/mL streptomycin, 2 mM glutamine, 0.5 mg/mL G418 (geneticin) for CRTH2, and 0.2 mg/mL hygromycin-B (for G-alpha 16). For whole cell receptor binding assay, the monolayer cells were rinsed once with PBS (phosphate buffered saline), dissociated using ethylenediaminetetraacetate (Versene™ EDTA from Lonza Inc.), and suspended in PBS containing 10 mM MgCl2 and 0.06% BSA (bovine serum albumin) at 1.5×10^6 cells/mL.
The binding reactions (0.2 mL) were performed in 96-well plates at room temperature in PBS containing 1.5×10^5 cells, 10 mM MgCl2, 0.06% BSA, 20 nM [^3H]ramatroban, and test compound at various concentrations. After 1 hour of binding reactions, the cells were harvested on GF™/B filter microplates (microtiter plates with embedded glass fiber from PerkinElmer, Inc.) and washed 5 times with PBS using a Filtermate™ Harvester (a cell harvester that harvests and washes cells from microplates from PerkinElmer, Inc.). The radioactivities bound to the cells were determined using a microplate scintillation counter (TopCount® NXT, from PerkinElmer, Inc.) after adding 50 μL of Microscint™ 20 scintillation fluid (from PerkinElmer, Inc.) to each well of the filter plates. The radioactivity from non-specific binding was determined by replacing compound with 10 μM of 15(R)-15-methyl PGD2 (from Cayman Chemical Company) in the reaction mixtures. The radioactivity bound to the cells in the absence of compound (total binding) was determined by replacing compound with 0.25% of DMSO (dimethyl sulfoxide) in the reaction mixture. Specific binding data were obtained by subtracting the radioactivity of non-specific binding from each binding data.
The IC50 value is defined as the concentration of the tested compound that is required for 50% inhibition of total specific binding. In order to calculate the IC50 value, the percent inhibition data were determined for 7 concentrations for each compound. The percent inhibition for a compound at each concentration was calculated according to the following formula, [1-(specific binding in the presence of compound)/(total specific binding)]×100. The IC50 value was then obtained by fitting the percent inhibition data to a sigmoidal dose-response (4 parameter logistic) model in the XLfit® software Excel add-in program [from ID Business Solutions Ltd., model 205, where F(x)=(A+(B−A)/(1+((C/x)^D)))].

human CRTH2 [2] = molecular target: T1, human CRTH2; experiment: Calcium Flux Assay Using Fluorometric Imaging Plate Reader (FLIPR); format: cell-based; conditions: CHO-K1 cells with G-alpha 16 and human CRTH2; inhibition of DK-PGD2 ligand-induced Ca2+ flux
Method: Calcium Flux Assay Using Fluorometric Imaging Plate Reader (FLIPR)
Cell Culture Conditions: CHO-K1 cells previously transfected with G-alpha 16 were subsequently transfected with the human CRTH2 receptor and the neomycin resistance gene. Following selection in 800 μg/mL G418 (geneticin), individual clones were assayed for their receptor expression based on staining with an anti human CRTH2 IgG, followed by assaying for their response to 13,14-dihydro-15-keto Prostaglandin D2 (DK-PDG2) (ligand) in the Ca^2+ Flux assay. Positive clones were then cloned by limiting dilution cloning. The transfected cells were cultured in Ham's F-12 medium supplemented with 10% fetal bovine serum, 2 mM glutamine, 100 U/mL penicillin/100 μg/mL streptomycin, 200 μg/mL hygromycin B, and 800 μg/mL G418 (geneticin). Cells were harvested with trypsin-EDTA (trypsin-ethylenediaminetetraacetic acid) and counted using ViaCount® reagent (from Guava Technologies, Inc. which contains two DNA-binding dyes that enable the reagent user to distinguish between viable and non-viable cells). The cell suspension volume was adjusted to 2.5×10^5 cells/mL with complete growth media. Aliquots of 50 μL were dispensed into BD Falcon™ 384 well black/clear microplates (from BD Biosciences, a division of Becton, Dickinson and Company) and the microplates were placed in a 37° C. CO2 incubator overnight. The following day, the microplates were used in the assay.
Loading Buffer containing dye (from the FLIPR® Calcium 3 Assay Kit from Molecular Devices, a division of MDS Analytical Technologies and MDS Inc.) was prepared by dissolving the contents of one bottle into 200 mL Hank's Balanced Salt Solution containing 20 mM HEPES (4-(2-hydroxyethyl)-1-piperazineethanesulfonic acid) and 2.5 mM probenecid. Growth media was removed from the cell plates and 25 μL of Hank's Balanced Salt Solution (HBSS) containing 20 mM HEPES, 0.05% BSA and 2.5 mM probenecid was added to each well followed by 25 μL of diluted dye using a Multidrop dispenser. The plates were then incubated for 1 hour at 37° C.
During the incubation, test compound plates were prepared by adding 90 μL of HBSS/20 mM HEPES/0.005% BSA buffer to the 2 μL of serial diluted compounds. To prepare serial diluted compounds, 20 mM stocks of compounds were dissolved in 100% DMSO. The compound dilution plate was set up as follows: well #1 received 5 μL of compound plus 10 μL of DMSO. Wells 2-10 received 10 μL of DMSO. 5 μL was mixed and transferred from well #1 into well #2. 1:3 serial dilutions were continued out 10 steps. 2 μL of diluted compound was transferred into duplicate wells of a 384 well “assay plate” and then 90 μL of buffer was added.
After incubation, both the cell and “assay plate” plates were brought to the fluorometric imaging plate reader (FLIPR®) and 20 μL of the diluted compounds were transferred to the cell plates by the FLIPR®. Plates were then incubated for 1 hour at room temperature. […] During the assay, fluorescence readings were taken simultaneously from all 384 wells of the cell plate every 1.5 seconds. Five readings were taken to establish a stable baseline, then 20 μL of sample was rapidly (30 μL/sec) and simultaneously added to each well of the cell plate. The fluorescence was continuously monitored before, during and after sample addition for a total elapsed time of 100 seconds. Responses (increase in peak fluorescence) in each well following agonist addition were determined. The initial fluorescence reading from each well, prior to ligand stimulation, was used as a zero baseline value for the data from that well. The responses were expressed as % inhibition of the buffer control.

Th2 cells = experiment: DK-PGD2-Induced IL-13 Production Assay in Th2 Cells; format: cell-based; conditions: human Th2 cells; 500 nM DK-PGD2; 4 hrs at 37° C.; IL-13 by ELISA
Method: DK-PGD2-Induced IL-13 Production Assay in Th2 Cells
Cultures of Th2 cells were established from blood of healthy human volunteers according to the following procedure. Peripheral blood mononuclear cells (PBMC) were first isolated from 50 mL of fresh blood by Ficoll-Hypaque density gradient centrifugation, followed by CD4^+ cell purification using a CD4^+ T Cell Isolation Kit II (from Miltenyi Biotec Inc.). The CD4^+ T cells were then differentiated to Th2 cells by culturing the cells in X-VIVO 15® medium (from Cambrex BioScience Walkersville Inc.) containing 10% human AB serum (serum of blood type AB from Invitrogen Corporation), 50 U/mL of recombinant human interleukin-2 (rhIL-2) (from PeproTech Inc.) and 100 ng/mL of recombinant human interleukin-4 (rhIL-4) (from PeproTech Inc.) for 7 days. […] In general, 70% to 80% of the Th2 cells used in the assay are CRTH2-positive when analyzed by fluorescence-activated cell sorting using the BM16 antibody (as previously described) conjugated to Alexa Fluor 647.
The spontaneous production of IL-13 by Th2 cells was determined in the absence of DK-PGD2 stimulation and the value was subtracted from that in the presence of each compound for percent inhibition and IC50 calculations. […]

T1 sequence (Q9Y5Y4 whole entry): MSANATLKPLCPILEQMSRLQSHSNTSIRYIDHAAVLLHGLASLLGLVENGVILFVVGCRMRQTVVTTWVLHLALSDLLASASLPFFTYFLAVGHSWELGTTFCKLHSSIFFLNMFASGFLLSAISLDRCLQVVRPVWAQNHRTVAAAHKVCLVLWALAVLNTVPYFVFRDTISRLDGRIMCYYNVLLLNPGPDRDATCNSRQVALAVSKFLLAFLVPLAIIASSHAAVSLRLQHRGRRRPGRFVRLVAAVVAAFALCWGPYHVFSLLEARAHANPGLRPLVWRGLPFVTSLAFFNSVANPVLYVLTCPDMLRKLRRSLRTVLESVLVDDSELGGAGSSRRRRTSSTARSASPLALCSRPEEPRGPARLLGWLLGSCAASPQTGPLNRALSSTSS

Row | SMILES | IC50 (human CRTH2 [1]) | IC50 (human CRTH2 [2]) | IC50 (Th2 cells)
1 | Cc1ccccc1S(=O)(=O)c1ccc(-c2c(C)c(CC(=O)O)cc3ccc(F)cc23)cc1 [Example 1, {6-Fluoro-3-methyl-4-[4-(toluene-2-sulfonyl)-phenyl]-naphthalen-2-yl}-acetic acid] | 2.9 nM | 0.3 nM | 
2 | Cc1c(CC(=O)O)cc2ccc(Cl)cc2c1-c1ccc(S(=O)(=O)N2CCCC2)cc1 [Example 33, {6-Chloro-3-methyl-4-[4-(pyrrolidine-1-sulfonyl)-phenyl]-naphthalen-2-yl}-acetic acid] |  | 0.8 nM | 8 nM
3 | Cc1c(CC(=O)O)cc2ccc(F)cc2c1-c1ccc(S(C)(=O)=O)cc1 [Example 54, [6-Fluoro-4-(4-methansulfonyl-phenyl)-3-methyl-naphthalen-2-yl]-acetic acid] | 40 nM | 25 nM | 
4 | Cc1c(CC(=O)O)cc2ccc(Cl)cc2c1-c1ccc(S(=O)(=O)N2CCOCC2)cc1 [Example 55, {6-Chloro-3-methyl-4-[4-(morpholino-4-sulfonyl)-phenyl]-naphthalen-2-yl}-acetic acid] | 2.4 nM |  | 
5 | Cc1c(CC(=O)O)cc2ccc(F)cc2c1-c1ccc(S(C)(=O)=O)cn1 [Example 58, [6-Fluoro-4-(5-methanesulfonyl-pyridin-2-yl)-3-methyl-naphthalen-2-yl]-acetic acid] | 139 nM | 1120 nM | 
6 | Cc1c(CC(=O)O)cc2ccc(F)cc2c1-c1ccc(NS(=O)(=O)c2ccccc2)cc1 [Example 59, [4-(4-Benzenesulfonylamino-phenyl)-6-fluoro-3-methyl-naphthalen-2-yl]-acetic acid] | 3.2 nM |  | 
7 | Cc1c(CC(=O)O)cc2ccc(F)cc2c1-c1ccc(NS(=O)(=O)c2cc(C(F)(F)F)cc(C(F)(F)F)c2)cc1 [Example 60, {4-[4-(3,5-Bis-trifluoromethyl-benzenesulfonylamino)-phenyl]-6-fluoro-3-methyl-naphthalen-2-yl}-acetic acid] | 5.6 nM | 0.1 nM | 
8 | Cc1c(CC(=O)O)cc2ccc(Cl)cc2c1-c1ccc(NS(=O)(=O)c2ccccc2)cc1 [Example 61, [4-(4-Benzenesulfonylamino-phenyl)-6-chloro-3-methyl-naphthalen-2-yl]-acetic acid] | 3.7 nM |  | 
9 | Cc1c(CC(=O)O)cc2ccc(Cl)cc2c1-c1ccc(NS(=O)(=O)c2ccccc2C(F)(F)F)cc1 [Example 62, {6-Chloro-3-methyl-4-[4-(2-trifluoromethyl-benzenesulfonylamino)-phenyl]-naphthalen-2-yl}-acetic acid] | 8.9 nM |  | 
10 | Cc1ccccc1S(=O)(=O)Nc1ccc(-c2c(C)c(CC(=O)O)cc3ccc(Cl)cc23)cc1 [Example 63, {6-Chloro-3-methyl-4-[4-(toluene-2-sulfonylamino)-phenyl]-naphthalen-2-yl}-acetic acid] | 8.3 nM |  | 
11 | CC(=O)Nc1ccc(-c2c(C)c(CC(=O)O)cc3ccc(Cl)cc23)cc1 [Example 64, [4-(4-Acetylamino-phenyl)-6-chloro-3-methyl-naphthalen-2-yl]-acetic acid] | 29.2 nM |  | 
12 | Cc1c(CC(=O)O)cc2ccc(Cl)cc2c1-c1ccc(NC(=O)c2ccccc2)cc1 [Example 65, [4-(4-Benzoylamino-phenyl)-6-chloro-3-methyl-naphthalen-2-yl]-acetic acid] | 6.2 nM |  | 
13 | Cc1c(CC(=O)O)cc2ccc(Cl)cc2c1-c1ccc(NC(=O)Nc2ccccc2)cc1 [Example 66, {6-Chloro-3-methyl-4-[4-(3-phenyl-ureido)-phenyl]-naphthalen-2-yl}-acetic acid] | 19 nM |  | 
